# Measurements taken from patent publication US20050037436A1, “Test systems and the use thereof for identifying and characterizing compounds” (priority 2000, published 2005).
# Values joined by “and” are separate entries in the source; they are usually repeats but may differ in a detail not shown here. Identical values can stand only once. “Also recorded” adds a separate entry of the source. Like-named read-outs stand apart in the source and are kept apart here.
# How the values were obtained:
# [1] = system: HC110-R; format: cell-based, Haemonchus contortus; details: for α-LTX-induced increase in [Ca2+]i after preincubation: substance removed, then 75 nM α-LTX
# Procedure: The intracellular free Ca^2+ concentration [Ca^2+]i was measured in COS-7 and HEK293 cells transiently transfected with the HC110-R-EGFP or β2-AR-EGFP construct using the calcium imaging method (see also FIG. 11). In each case 2×10^5 COS-7 and HEK293 cells were applied to a 42 mm cover glass coated with 1% gelatine in 55 mm tissue culture dishes with 5 ml of DMEM medium (with 10% FCS and pen/strep). The transfection took place with the aid of the non-liposomal transfection reagent FuGENE 6 (Roche Molecular Biochemicals, Mannheim). […] Constructs of the HC110-R full-length clone with a GFP tag fused in the correct reading frame, and the complete cDNA of the β2-adrenergic receptor which had likewise been provided with a GFP tag at the 3′ end, were transfected.
# After the incubation, the cells loaded with Fura-2/AM were examined under an inverted microscope (Zeiss, Axiovert, Germany) and, in parallel with this, in a digital imaging fluorescence microscope (PTI) and differentiated into transfected and untransfected cells at a wavelength of 440 and 490 nm respectively. On average, 5-7 transfected and non transfected cells were selected by fixing an ROI (region of interest). The extinction was measured at 340 nm (calcium-bound Fura-2/AM) and 380 nm (free Fura-2/AM), and the emission was measured at 510 nm. Evaluation took place using the Image Master 1.x software by forming the quotient of 340:510 nm, 380:510 nm and the ratio of 340/380:510 nm (background corrected images) as a function of the agent added.
# Agents were always added 6 min after starting the measurement by removing an appropriate volume of Na^+ HBS buffer and pipetting the agent directly into the sample vessel for a further 30 to 50 min. The total volume in the sample vessel was constant at 1.5 ml throughout the experiment. […] Addition of CdCl2 and nifedipine took place immediately at the start of the experiment and before addition of α-LTX, and EGTA was added both at the start of the experiment and 4 min after the addition of α-LTX. Dissolved α-LTX was present in a concentration of 300 nM in 50 mM tris-HCl, pH 8.0; BAY 44-4400 was initially dissolved in pure DMSO (stock solutions between 0.004 and 10 μg/ml). The stock solutions were adjusted to the required concentration in the Na^+ HBS buffer. The maximum amount of the active substance BAY 44-4400 which could be dissolved at a final concentration of 0.1% DMSO was found by setting up serial dilutions in Na^+ HBS.
# The data were analyzed using the Excel 98 table calculation programme. The results are derived from at least 2-4 reproduced experiments on in each case 4-8 transfected and un-transfected cells.
# [2] = system: nematodes; test: Anthelmintic / neuropharmacological activity on nematodes
# [3] = system: HC110-R; test: Ca2+ imaging of HEK-293 cells expressing HC110-R-Myc/His; format: cell-based, Haemonchus contortus; details: stably expressing cells; 400 ng/ml added 6 min before 75 nM α-LTX
# [4] = molecular target: T1, β2-R-GFP (Mus musculus, UniProt P18762); test: PF1022A binding by FACScan, β2-R-GFP control cells
# T1 construct: was fused with a C-terminal EGFP tag by amplifying the full-length cDNA with the P117 mouse 2AR XhoI 5′ primer; expressed in transfected cells; host or cells: HEK-293, transient (pEGFP-N3)
# Procedure: (§1) For this purpose, HEK-293 cells were transiently transfected with HC110-R-GFP or GFP-HC110-R or else transiently cotransfected with HC110-R-Myc/His and GFP. […] 24 h after the transfection, the cells were incubated with biotinylated PF1022A, and PF1022A-bound cells were detected using streptavidin-phycoerythrin and were finally fixed. A negative control of cells transfected with HC110-R-GFP was incubated only with streptavidin-phycoerythrin without PF1022A-biotin.
# (§2) Phycoerythrin has—like TRITC—an absorption spectrum which overlaps with EGFP, while the emission spectra are adequately separated, so that both fluorochromes can be excited at only one wavelength. Cell detritus was excluded from the measurement of the fluorescence intensity by setting a ‘gate’ on the main cell population. For quantitative evaluation, the limits were fixed for negative, unstained and positive, GFP-fluorescent cells on the basis of the untransfected and GFP-transfected cells.
# (§3) In each case 5×10^5 HEK-293 cells which were not transfected, were transiently transfected with GFP, HC110-R-GFP, GFP-HC110-R, β2-R-GFP and M1-R-GFP, and transiently cotransfected with HC110-R-Myc/His and GFP were incubated, 24 h after the transfection, with 0.5 μg/ml PF1022A-biotin and streptavidin-phycoerythrin (1:300) and then fixed. […]
# [5] = system: HC110-R; format: binding, Haemonchus contortus; details: renatured; fragment expressed in E. coli
# Source text: Since denaturation of proteins is necessary for carrying out SDS-PAGE, there may be destruction of conformation-dependent epitopes. Antibodies or proteins which specifically recognize such epitopes may therefore no longer bind. […] BAY44-4400 differs from PF1022A by 2 morpholine residues which are covalently bonded to the phenyl rings of the two D-phenyllactyl radicals of PF1022A. […] For this purpose, total protein from untransfected HEK-293 cells and HEK-293 cells which transiently express HC110-R-Myc/His, and from the 54 kDa N terminus and the 21 kDa C terminus of HC110-R which were expressed in E. coli, were fractionated by SDS-PAGE, renatured and blotted in the usual way. […] In addition, a partially renatured SDS polyacrylamide gel with the protein fractions of untransfected HEK-293 cells, HEK-293 cells transiently transfected with HC110-R-Myc/His, and the N terminus of HC110-R expressed in E. coli and total protein from H. contortus was blotted, incubated with PF1022A-biotin and detected using streptavidin HRP.
# [6] = system: HC110-R; test: PF1022A binding to HC110-R-transfected HEK-293 cells by FACScan; parameters: species or system Haemonchus contortus; details: for Phycoerythrin fluorescence: 0.5 μg/ml PF1022A-biotin + streptavidin-phycoerythrin
# Procedure: as §1, §2
# (§4) In each case 5×10^5 HEK-293 cells which were not transfected, were transiently transfected with GFP, HC110-R-GFP, GFP-HC110-R, β2-R-GFP and M1-R-GFP, and transiently cotransfected with HC110-R-Myc/His and GFP were incubated, 24 h after the transfection, with 0.5 μg/ml PF1022A-biotin and streptavidin-phycoerythrin (1:300) and then fixed. As negative controls, HC110-R-GFP-transfected cells were incubated only with streptavidin-phycoerythrin, without PF1022A-biotin. […] The standard deviation is derived by determining the means of triplicate mixtures.
# [7] = molecular target: T2, M1-R-GFP (Homo sapiens, UniProt P11229); test: PF1022A binding by FACScan, M1-R-GFP control cells
# T2 construct: The full-length cDNA of a human muscarinic receptor 1 (huM1Rez); expressed in transfected cells; host or cells: HEK-293, transient (pEGFP-N3)
# T2 sequence (P11229 1-460): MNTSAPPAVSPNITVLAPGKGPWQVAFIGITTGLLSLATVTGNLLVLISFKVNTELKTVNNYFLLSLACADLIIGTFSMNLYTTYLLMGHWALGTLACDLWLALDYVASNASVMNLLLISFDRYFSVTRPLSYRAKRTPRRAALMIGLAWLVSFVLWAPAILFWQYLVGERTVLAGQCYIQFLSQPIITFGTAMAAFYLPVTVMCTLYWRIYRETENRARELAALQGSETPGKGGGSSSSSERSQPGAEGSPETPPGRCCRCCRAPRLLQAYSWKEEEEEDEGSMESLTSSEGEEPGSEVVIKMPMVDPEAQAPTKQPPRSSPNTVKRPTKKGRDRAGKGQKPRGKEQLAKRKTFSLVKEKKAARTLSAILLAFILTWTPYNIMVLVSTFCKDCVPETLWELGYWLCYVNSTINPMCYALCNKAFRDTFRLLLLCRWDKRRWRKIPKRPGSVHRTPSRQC
# Procedure: as §1, §2, §3
# [8] = system: HC110-R; format: binding, Haemonchus contortus; details: mixture of N terminus and C terminus expressed in E. coli
# Procedure: In a control mixture with 4 mg of Dynal beads, TST buffer was added in place of PF1022A. Excess PF1022A-biotin was removed by magnetic separation before a mixture of the HC110-R terminus and C terminus expressed in E. coli and previously purified by affinity chromatography was added. After renewed magnetic separation to remove unbound HC110-R fragments, one aliquot derived from 2 mg, and one from 4 mg, of Dynal beads was fractionated by SDS-PAGE and blotted. Detection of the precipitate took place via the N-terminally fused His tag with a mouse anti-His IgG and a rabbit anti-mouse IgG HRP antibody. […] Nonspecific binding of the N or C terminus of HC110-R to the streptavidin-coupled beads was precluded by adding no biotinylated PF1022A to a reaction mixture.
# [9] = system: nematodes; details: depending on the particular species (Terada, 1992); cited from earlier work
# [10] = system: HEK-293 cells; test: PF1022A binding by FACScan, untransfected and GFP-transfected control cells; parameters: species or system human; details: for Phycoerythrin fluorescence: 0.5 μg/ml PF1022A-biotin + streptavidin-phycoerythrin
# Procedure: as §1, §2, §4
# [11] = Ca2+ imaging, arecoline stimulation of untransfected HEK-293 cells; format: cell-based, human; details: 1 mM arecoline; absence of BAY44-4400
# T1 sequence (P18762 whole entry, the tested form may be a part): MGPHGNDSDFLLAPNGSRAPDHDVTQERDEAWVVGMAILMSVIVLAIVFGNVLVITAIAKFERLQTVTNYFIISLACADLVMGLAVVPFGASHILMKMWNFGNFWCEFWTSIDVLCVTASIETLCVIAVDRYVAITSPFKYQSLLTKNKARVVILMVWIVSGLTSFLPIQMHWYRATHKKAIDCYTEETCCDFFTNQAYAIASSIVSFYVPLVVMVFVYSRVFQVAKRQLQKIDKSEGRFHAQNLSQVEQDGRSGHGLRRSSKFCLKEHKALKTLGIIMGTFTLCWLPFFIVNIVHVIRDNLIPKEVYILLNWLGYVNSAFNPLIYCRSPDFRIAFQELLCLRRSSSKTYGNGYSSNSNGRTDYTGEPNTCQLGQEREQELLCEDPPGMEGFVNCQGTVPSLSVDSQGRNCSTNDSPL
compound,measurement,setting,value
O=C(O)CN(CCOCCOCCN(CC(=O)O)CC(=O)O)CC(=O)O [EGTA],α-LTX-induced increase in [Ca2+]i with extracellular Ca2+ removed,[1]; 2 mM EGTA before or after addition of α-LTX,only a small increase
"CC(C)C[C@@H]1C(=O)O[C@@H](Cc2ccccc2)C(=O)N(C)[C@H](CC(C)C)C(=O)O[C@@H](C)C(=O)N(C)[C@H](CC(C)C)C(=O)O[C@@H](Cc2ccccc2)C(=O)N(C)[C@H](CC(C)C)C(=O)O[C@@H](C)C(=O)N1C [PF1022-001, cyclo(-L-Lac-D-MeLeu-L-PhLac-D-Me-Leu-)2]",anthelmintic / nematicidal activity in words,[2],has no anthelmintic activity; also recorded: virtually ineffective
same,α-LTX-induced increase in [Ca2+]i in presence of substance,[1]; 4 ng/ml added 6 min before 75 nM α-LTX,103 ± 11.5 nM
same,α-LTX-induced increase in [Ca2+]i in presence of substance,"[1]; 4 ng/ml added 6 min before 75 nM α-LTX, listed as optical antipode",67 nM
same,change in [Ca2+]i after preincubation with substance alone,"[1]; 4 ng/ml or 400 ng/ml, 90 min preincubation, no α-LTX",no change in [Ca^2+]i
same,α-LTX-induced increase in [Ca2+]i after preincubation,"[1]; 4 ng/ml, 90 min preincubation",102 ± 6.4 nM
same,α-LTX-induced increase in [Ca2+]i in presence of substance,[1]; 400 ng/ml added 6 min before 75 nM α-LTX,112+14.3 nM
same,Ca2+ response to substance alone,"[1]; 400 ng/ml where stated, no α-LTX, up to 50 min or 90 min preincubation",neither the very effective nematicide BAY44-4400 nor the virtually ineffective antipode PF1022-001 induces a Ca^2+ response
same,α-LTX-induced increase in [Ca2+]i after preincubation,"[1]; 400 ng/ml, 90 min preincubation",109 ± 8.4 nM and 110 nM
same,reduction of α-LTX-induced Ca2+ increase,"[1]; 400 ng/ml, 90 minutes preincubation, 6 minutes after 75 nM α-LTX",59%
same,Ca2+-mediated response to substance alone,"[1]; 100, 300 or 400 ng/ml and 1 or 10 μg/ml, 50 min, untransfected and HC110-R-GFP-transfected cells",At no concentration was a Ca^2+-mediated response detectable
same,α-LTX-induced increase in Ca2+ at increased concentration of substance,"[1]; concentration above 4 ng/ml, added 6 minutes before 75 nM α-LTX",20 nM
same,α-LTX-induced increase in [Ca2+]i in presence of substance,[3],209 ± 33.4 nM
"CC(C)C[C@H]1C(=O)O[C@H](Cc2ccccc2)C(=O)N(C)[C@@H](CC(C)C)C(=O)O[C@H](C)C(=O)N(C)[C@@H](CC(C)C)C(=O)O[C@H](Cc2ccccc2)C(=O)N(C)[C@@H](CC(C)C)C(=O)O[C@H](C)C(=O)N1C [PF1022A, cyclo(-D-Lac-L-MeLeu-D-PhLac-L-MeLeu-)2]",Phycoerythrin fluorescence,[4],0.8 ± 0.1%
same,percentage of green-fluorescent cells that bind PF1022A,[4]; cells expressing 2-R-GFP,9.9%
same,binding to 21 kDa C terminus of HC110-R,[5],no specific PF1022A binding
same,percentage of green-fluorescent cells that bind PF1022A,[6]; cells cotransfected with HC110-R-Myc/His and GFP,44.5%
same,percentage of green-fluorescent cells that bind PF1022A,[6]; cells expressing GFP-HC110-R,26.8%
same,percentage of green-fluorescent cells that bind PF1022A,[6]; cells expressing HC110-R-GFP,41.2%
same,Phycoerythrin fluorescence,[6]; plasmid GFP-HC110-R,2.5 ± 0.3%
same,Phycoerythrin fluorescence,"[6]; plasmid HC110-R-GFP, nonspecific staining subtracted",4.5 ± 0.4%
same,Phycoerythrin fluorescence,[6]; plasmids HC110-R-Myc/His + GFP,10.3 ± 0.7%
same,Phycoerythrin fluorescence,[7],1.6 ± 0.1%
same,percentage of green-fluorescent cells that bind PF1022A,[7]; cells expressing M1-R-GFP,19.2%
same,precipitation of HC110-R fragments,[8],Only the N-terminal 54 kDa region of HC110-R is precipitated
same,concentrations at which effect on nematodes is exerted,[9],100 to 800 ng/mL
same,change in response to α-LTX after preincubation,"[1]; 4 ng/ml or 400 ng/ml, 90 minutes preincubation, removed before α-LTX",no significant change in their response to α-LTX
same,percentage of green-fluorescent cells that bind PF1022A,[10]; cells expressing GFP,7.5%
same,Phycoerythrin fluorescence,[10]; plasmid GFP,1.3 ± 0.4%
same,Phycoerythrin fluorescence,[10]; untransfected,0 ± 0%
COC(=O)C1=CCCN(C)C1 [arecoline],arecoline-induced increase in Ca2+,[11],27 ± 3.5 nM
